Laboratory results reported in patent US20240270821A1, “GIP/GLP1/GCG TRI-RECEPTOR AGONISTS AND USES THEREOF” (priority 2023, published 2024).
Where two headings read alike, the source gives them in different places. Starred links: 1 amine or outer side, 2 acyl side, 3 side chain; linkers in the order of their positions; H or OH if unused. Non-standard residues stand in square brackets, D forms with d. Groups on a side chain read outwards from the residue. *: point of attachment. C18 diacid = O=C(O)CCCCCCCCCCCCCCCCC(=O)*; αMePhe(2-F) = C[C@](N)(Cc1ccccc1F)C(=O)O; γGlu = O=C(O)[C@H](CCC(=O)[*:2])N[*:1]; αMe4Pal = C[C@](N)(Cc1ccncc1)C(=O)O; αMeY = C[C@](N)(Cc1ccc(O)cc1)C(=O)O; 4Pal = N[C@@H](Cc1ccncc1)C(=O)O; αMeL = CC(C)C[C@](C)(N)C(=O)O; αMeS = C[C@](N)(CO)C(=O)O; Orn = NCCC[C@H](N)C(=O)O; AEEA = NCCOCCOCC(=O)O; Aib = CC(C)(N)C(=O)O

What was measured:
Format in all cases: cell-based
hGIPR [1] = molecular target: T1, hGIPR (Homo sapiens, UniProt P48546); test: Functional cAMP activity in the presence of 1% HSA; details: read-out: cAMP Rel EC50, hGIPR
T1 sequence (P48546 22-466): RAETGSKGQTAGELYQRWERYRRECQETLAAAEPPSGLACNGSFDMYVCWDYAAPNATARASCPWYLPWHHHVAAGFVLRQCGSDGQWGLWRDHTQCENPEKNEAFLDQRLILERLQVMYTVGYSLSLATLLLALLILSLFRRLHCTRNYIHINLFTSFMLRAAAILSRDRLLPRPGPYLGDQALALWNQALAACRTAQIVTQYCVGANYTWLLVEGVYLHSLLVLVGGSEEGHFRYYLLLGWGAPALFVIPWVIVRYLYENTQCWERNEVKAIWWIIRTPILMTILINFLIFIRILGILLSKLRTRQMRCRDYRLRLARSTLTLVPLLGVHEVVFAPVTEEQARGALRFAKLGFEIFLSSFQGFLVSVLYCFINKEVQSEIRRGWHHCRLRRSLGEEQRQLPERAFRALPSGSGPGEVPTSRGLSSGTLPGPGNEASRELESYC

hGLP-1R [2] = molecular target: T2, hGLP-1R (Homo sapiens, UniProt P43220); test: Functional cAMP activity in the presence of 1% HSA; details: read-out: cAMP Rel EC50, hGLP-1R
T2 sequence (P43220 24-463): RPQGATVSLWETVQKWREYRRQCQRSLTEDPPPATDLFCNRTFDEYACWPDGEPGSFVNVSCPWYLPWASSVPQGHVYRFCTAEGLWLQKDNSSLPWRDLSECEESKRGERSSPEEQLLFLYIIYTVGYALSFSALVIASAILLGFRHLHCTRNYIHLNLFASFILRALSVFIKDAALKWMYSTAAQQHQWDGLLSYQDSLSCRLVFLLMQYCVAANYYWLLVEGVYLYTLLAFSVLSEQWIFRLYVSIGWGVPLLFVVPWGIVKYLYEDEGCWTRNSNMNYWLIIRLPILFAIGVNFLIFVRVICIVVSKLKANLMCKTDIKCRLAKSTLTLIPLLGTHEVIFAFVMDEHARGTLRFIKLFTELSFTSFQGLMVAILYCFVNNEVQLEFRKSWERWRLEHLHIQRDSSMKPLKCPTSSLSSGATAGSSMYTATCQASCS

human GcgR = human GcgR (Homo sapiens, UniProt P47871); test: Functional cAMP activity in the presence of 1% HSA; details: read-out: cAMP Rel EC50, hGcgR
Chain of human GcgR (P47871 26-477): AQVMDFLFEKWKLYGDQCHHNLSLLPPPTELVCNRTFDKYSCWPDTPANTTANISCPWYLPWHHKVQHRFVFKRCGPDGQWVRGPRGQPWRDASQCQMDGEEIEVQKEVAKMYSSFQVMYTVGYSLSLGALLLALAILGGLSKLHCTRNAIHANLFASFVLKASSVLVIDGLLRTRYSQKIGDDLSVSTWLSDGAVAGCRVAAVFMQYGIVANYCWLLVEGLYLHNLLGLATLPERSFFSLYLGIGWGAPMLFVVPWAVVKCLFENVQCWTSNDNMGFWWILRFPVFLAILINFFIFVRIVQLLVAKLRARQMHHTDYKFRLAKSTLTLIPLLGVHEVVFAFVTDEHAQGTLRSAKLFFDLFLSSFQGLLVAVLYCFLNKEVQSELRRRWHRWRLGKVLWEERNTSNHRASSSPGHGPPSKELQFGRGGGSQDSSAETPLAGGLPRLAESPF

hGIPR [3] = molecular target: T1, hGIPR; test: Functional cAMP activation in the presence of 0.1% casein (no HSA); details: read-out: Relative cAMP EC50, hGIPR;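 on Relative cAMP EC50, hGIPR: intracellular cAMP rise after 30 min at 37 °C read by HTRF against a standard curve, scaled between buffer alone (0%) and top control ligand concentration (100%), four-parameter fit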;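 on Relative cAMP EC50, hGLP-1R: intracellular cAMP rise after 30 min at 37 °C read by HTRF, normalized between buffer only (0%) and maximal control ligand (100%), four-parameter variable-slope fit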;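 on Relative cAMP EC50, hGcgR: intracellular cAMP rise after 30 min at 37 °C, read by HTRF against a cAMP standard curve, scaled from buffer only (0%) to maximal control ligand response (100%)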
hGLP-1R [4] = molecular target: T2, hGLP-1R; test: as above; details: read-out: Relative cAMP EC50, hGLP-1R
hGcgR = hGcgR (Homo sapiens, UniProt P47871); test: as above; details: read-out: Relative cAMP EC50, hGcgR;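 further: intracellular cAMP rise after 30 min at 37 °C, read by HTRF against a cAMP standard curve, scaled from buffer only (0%) to maximal control ligand response (100%)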
Chain of hGcgR (P47871 26-477): as above

[5] = 0.1% casein, no HSA, geometric mean
[6] = in the presence of 0.1% casein (no HSA), geometric mean

EC50 (hGIPR [1])	EC50 (hGLP-1R [2])	EC50 (human GcgR)	EC50 (hGIPR [3]; [5])	EC50 (hGLP-1R [4]; [5])	EC50 (hGcgR; [5])	Substance	EC50 (hGIPR [3]; [6])	EC50 (hGLP-1R [4]; [6])	EC50 (hGcgR; [6])	EC50 (hGIPR [3])	EC50 (hGLP-1R [4])	EC50 (hGcgR)
0.896 nM	91.4 nM	278 nM	0.00883 nM	0.727 nM	1.5 nM	H-Y[Aib]QGT[αMePhe(2-F)]TSD[4Pal][αMeS]I[αMeL]LD[Orn]K([AEEA-γGlu-C18 diacid])AQ[αMe4Pal]EFI[dE][αMeY]LIEGGPPS[Aib]EPPPSGSE-NH2 [Example 1200]						
0.759 nM	57.4 nM	215 nM	0.00725 nM	0.51 nM	2.02 nM	H-Y[Aib]QGT[αMePhe(2-F)]TSD[4Pal][αMeS]I[αMeL]LD[Orn]K([AEEA-γGlu-C18 diacid])AQ[αMe4Pal]EFI[dE][αMeY]LIEGGPPS[Aib][Orn]PPPEGE-NH2 [Example 1194]						
0.733 nM	63.9 nM	352 nM	0.0076 nM	0.5 nM	2.05 nM	H-Y[Aib]QGT[αMePhe(2-F)]TSD[4Pal][αMeS]I[αMeL]LD[Orn]K([AEEA-γGlu-C18 diacid])AQ[αMe4Pal]EFI[dE][αMeY]LIEGGPPS[Aib][Orn]PPPSGGGE-NH2 [Example 1199]						
0.637 nM	44.2 nM	242 nM	0.00708 nM	0.367 nM	1.74 nM	H-Y[Aib]QGT[αMePhe(2-F)]TSD[4Pal][αMeS]I[αMeL]LD[Orn]K([AEEA-γGlu-C18 diacid])AQ[αMe4Pal]EFI[dE][αMeY]LIEGGPPS[Aib][Orn]PPP[Orn]GE-NH2 [Example 1195]						
0.639 nM	46.1 nM	288 nM	0.00666 nM	0.407 nM	1.88 nM	H-Y[Aib]QGT[αMePhe(2-F)]TSD[4Pal][αMeS]I[αMeL]LD[Orn]K([AEEA-γGlu-C18 diacid])AQ[αMe4Pal]EFI[dE][αMeY]LIEGGPPS[Aib][Orn]PPP[Orn]GGGE-NH2 [Example 1197]						
0.584 nM	45.4 nM	248 nM				H-Y[Aib]QGT[αMePhe(2-F)]TSD[4Pal][αMeS]I[αMeL]LD[Orn]K([AEEA-γGlu-C18 diacid])AQ[αMe4Pal]EFI[dE][αMeY]LIEGGPPS[Aib][Orn]PPP[Orn]GS-NH2 [Example 1189]	0.00597 nM	0.292 nM	1.59 nM			

Substance	EC50 (hGIPR [1])	EC50 (hGLP-1R [2])	EC50 (human GcgR)	EC50 (hGIPR [3]; [5])	EC50 (hGLP-1R [4]; [5])	EC50 (hGcgR; [5])	EC50 (hGIPR [3]; [6])	EC50 (hGLP-1R [4]; [6])	EC50 (hGcgR; [6])	EC50 (hGIPR [3])	EC50 (hGLP-1R [4])	EC50 (hGcgR)
H-Y[Aib]QGT[αMePhe(2-F)]TSD[4Pal][αMeS]I[αMeL]LD[Orn]K([AEEA-γGlu-C18 diacid])AQ[αMe4Pal]EFI[dE][αMeY]LIEGGPSSGAPPPEGE-NH2 [Example 1148]	0.873 nM	44.3 nM	175 nM				0.00801 nM	0.299 nM	1.6 nM			
H-Y[Aib]QGT[αMePhe(2-F)]TSD[4Pal][αMeS]I[αMeL]LD[Orn]K([AEEA-γGlu-C18 diacid])AQ[αMe4Pal]EFI[dE][αMeY]LIEGGPSSGAPPPEGGGE-NH2 [Example 759]	1.05 nM	34.8 nM	223 nM							0.00676 nM	0.262 nM	1.29 nM
H-Y[Aib]QGT[αMePhe(2-F)]TSD[4Pal][αMeS]I[αMeL]LD[Orn]K([AEEA-γGlu-C18 diacid])AQ[αMe4Pal]EFI[dE][αMeY]LIEGGPSSGAPPPEGGGEE-NH2 [Example 1216]	0.914 nM	66.9 nM	225 nM	0.00921 nM	0.65 nM	1.83 nM						
H-Y[Aib]QGT[αMePhe(2-F)]TSD[4Pal][αMeS]I[αMeL]LD[Orn]K([AEEA-γGlu-C18 diacid])AQ[αMe4Pal]EFI[dE][αMeY]LIEGGPSSGAPPPEGGGEEE-NH2 [Example 1217]	1.06 nM	62.7 nM	253 nM	0.0101 nM	0.751 nM	1.98 nM						
H-Y[Aib]QGT[αMePhe(2-F)]TSD[4Pal][αMeS]I[αMeL]LD[Orn]K([AEEA-γGlu-C18 diacid])AQ[αMe4Pal]EFI[dE][αMeY]LIEGGPSSGAPPPGGE-NH2 [Example 1144]	0.72 nM	36.5 nM	196 nM				0.00649 nM	0.282 nM	1.32 nM			
